Measured values reported in the CheMixHub viscosity set.

Assay: xn = mol fraction of the nth substance listed

COC(N)=O + CCOC(N)=O
101.33 kPa, x2 = 0.5
Details	viscosity [mPa·s]
298.15 K	7.716
313.15 K	4.41

C=CC(=O)OC + CCOCCOCCO
viscosity [mPa·s], 101 kPa
Details	293.15 K	298.15 K	303.15 K	308.15 K	313.15 K	318.15 K
x2 = 0.0702	0.594	0.558	0.5	0.469	0.447	0.428
x2 = 0.1404	0.695	0.65	0.607	0.572	0.539	0.507
x2 = 0.2131	0.826	0.767	0.715	0.671	0.624	0.589
x2 = 0.2822	0.95	0.877	0.813	0.756	0.705	0.659
x2 = 0.3597	1.133	1.038	0.955	0.884	0.82	0.762
x2 = 0.4297	1.346	1.226	1.109	1.019	0.941	0.872
x2 = 0.5002	1.574	1.428	1.288	1.171	1.076	0.992
x2 = 0.5703	1.835	1.648	1.479	1.355	1.236	1.125
x2 = 0.6412	2.109	1.904	1.715	1.547	1.405	1.286
x2 = 0.7172	2.478	2.199	1.976	1.782	1.605	1.457
x2 = 0.7906	2.868	2.529	2.247	2.017	1.819	1.656
x2 = 0.8598	3.295	2.893	2.534	2.279	2.031	1.836
x2 = 0.9184	3.692	3.212	2.788	2.508	2.226	2.016

C=CC(=O)OCCCC + CCOCCOCCO
viscosity [mPa·s], 101 kPa
Details	293.15 K	298.15 K	303.15 K	308.15 K	313.15 K	318.15 K
x2 = 0.0702	0.966	0.899	0.837	0.782	0.733	0.687
x2 = 0.1444	1.059	0.977	0.904	0.839	0.783	0.733
x2 = 0.2183	1.167	1.07	0.986	0.913	0.849	0.791
x2 = 0.2855	1.287	1.175	1.078	0.994	0.92	0.854
x2 = 0.3658	1.453	1.332	1.207	1.108	1.022	0.947
x2 = 0.4403	1.637	1.499	1.346	1.233	1.127	1.039
x2 = 0.5027	1.819	1.649	1.477	1.343	1.227	1.126
x2 = 0.569	2.028	1.817	1.646	1.488	1.351	1.236
x2 = 0.6545	2.363	2.103	1.884	1.697	1.531	1.393
x2 = 0.7189	2.654	2.336	2.079	1.871	1.672	1.527
x2 = 0.787	2.982	2.609	2.295	2.069	1.842	1.681
x2 = 0.8385	3.27	2.85	2.481	2.243	1.992	1.816
x2 = 0.9319	3.843	3.312	2.873	2.586	2.28	2.07

CCCCCOC(C)=O + CCOc1ccccc1
Details	viscosity [mPa·s]
298.15 K, 101 kPa, x2 = 0.5	0.855

CCCCCOC(C)=O + CCc1ccccc1
Details	viscosity [mPa·s]
298.15 K, 101 kPa, x2 = 0.089	0.7697
